From ChEMBL document CHEMBL1152031, “Substituted N,N-diphenyl ureas as potent inhibitors of acyl-CoA:Cholesterol acyltransferase (ACAT)” (Bioorg Med Chem Lett, 1993)

Tests used:
Rattus norvegicus = test: Tested in vivo for the ability to lower the total plasma cholesterol (TC) in an chronic peanut oil/cholesterol/cholic Acid (APCC) model at the dose of 30 mg/kg; format: functional
O-acyltransferase = O-acyltransferase (Oryctolagus cuniculus, UniProt G1SFD9); test: In vitro inhibition of intestinal Acyl coenzyme A:cholesterol acyltransferase in cholesterol-fed rabbits.
Sequence of O-acyltransferase (G1SFD9 1-524): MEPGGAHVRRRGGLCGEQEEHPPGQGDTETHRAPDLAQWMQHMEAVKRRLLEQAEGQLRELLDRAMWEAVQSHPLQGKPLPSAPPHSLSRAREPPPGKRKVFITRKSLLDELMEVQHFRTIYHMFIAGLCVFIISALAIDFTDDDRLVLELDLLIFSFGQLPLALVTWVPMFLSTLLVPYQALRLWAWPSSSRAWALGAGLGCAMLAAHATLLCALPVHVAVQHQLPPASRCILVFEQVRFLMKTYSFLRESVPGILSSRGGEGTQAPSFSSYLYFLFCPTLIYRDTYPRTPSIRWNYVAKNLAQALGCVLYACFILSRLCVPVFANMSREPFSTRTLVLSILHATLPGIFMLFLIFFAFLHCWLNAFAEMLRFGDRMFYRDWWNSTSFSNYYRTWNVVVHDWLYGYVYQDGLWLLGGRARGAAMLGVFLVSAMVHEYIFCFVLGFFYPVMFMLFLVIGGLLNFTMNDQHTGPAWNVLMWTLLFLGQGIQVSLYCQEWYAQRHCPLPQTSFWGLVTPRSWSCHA

IC50 (O-acyltransferase) [nM] | Structure (SMILES) | Delta TC (Rattus norvegicus) [%]
500 | CCCCCCCCCCCCCCc1ccc(NC(=O)Nc2c(C(C)C)cccc2C(C)C)cc1 | -25
100 | CCc1ccc(NC(=O)Nc2c(C(C)C)cccc2C(C)C)cc1 | –
13 | CCCCCCCCCCc1ccc(NC(=O)Nc2c(C(C)C)cccc2C(C)C)cc1 | -25
19 | CCCCCCCc1ccc(NC(=O)Nc2c(C(C)C)cccc2C(C)C)cc1 | -21
250 | Cc1ccc(NC(=O)Nc2c(C(C)C)cccc2C(C)C)cc1 | –
38 | CCCc1ccc(NC(=O)Nc2c(C(C)C)cccc2C(C)C)cc1 | –
32 | CCCCCc1ccc(NC(=O)Nc2c(C(C)C)cccc2C(C)C)cc1 | –
11 | CCCCCCCCCCCCCc1ccc(NC(=O)Nc2c(C(C)C)cccc2C(C)C)cc1 | -70
15 | CCCCCCCCCCCCc1ccc(NC(=O)Nc2c(C(C)C)cccc2C(C)C)cc1 | -47
9 | CCCCCCCCCCCc1ccc(NC(=O)Nc2c(C(C)C)cccc2C(C)C)cc1 | -29
29 | CCCCc1ccc(NC(=O)Nc2c(C(C)C)cccc2C(C)C)cc1 | -12
168 | CC(C)c1cccc(C(C)C)c1NC(=O)Nc1ccc(C(C)(C)C)cc1 | -10
26 | CCCCCCc1ccc(NC(=O)Nc2c(C(C)C)cccc2C(C)C)cc1 | -18
11 | CCCCCCCCc1ccc(NC(=O)Nc2c(C(C)C)cccc2C(C)C)cc1 | -29
66 | CC(C)c1ccc(NC(=O)Nc2c(C(C)C)cccc2C(C)C)cc1 | –
9 | CCCCCCCCCc1ccc(NC(=O)Nc2c(C(C)C)cccc2C(C)C)cc1 | -8
– | CCCCCCCN(Cc1ccc(CC(C)(C)C)cc1)C(=O)Nc1ccc(F)cc1F [CL-277082] | -54
